Measurements: ChEMBL document CHEMBL1201862, “PubChem BioAssay data set” (2004)
The source made the active and inactive calls.

Assays:
[1] = target: T1, Short transient receptor potential channel 4 (Mus musculus, UniProt Q9QUQ5); test: SAR Analysis for the identification of selective inhibits of the transient receptor potential cation channel C4 (TRPC4): Automated Electrophysiology. [Related pubchem assays (depositor defined):AID2256]; assay type: functional
T1 sequence (Q9QUQ5 whole entry): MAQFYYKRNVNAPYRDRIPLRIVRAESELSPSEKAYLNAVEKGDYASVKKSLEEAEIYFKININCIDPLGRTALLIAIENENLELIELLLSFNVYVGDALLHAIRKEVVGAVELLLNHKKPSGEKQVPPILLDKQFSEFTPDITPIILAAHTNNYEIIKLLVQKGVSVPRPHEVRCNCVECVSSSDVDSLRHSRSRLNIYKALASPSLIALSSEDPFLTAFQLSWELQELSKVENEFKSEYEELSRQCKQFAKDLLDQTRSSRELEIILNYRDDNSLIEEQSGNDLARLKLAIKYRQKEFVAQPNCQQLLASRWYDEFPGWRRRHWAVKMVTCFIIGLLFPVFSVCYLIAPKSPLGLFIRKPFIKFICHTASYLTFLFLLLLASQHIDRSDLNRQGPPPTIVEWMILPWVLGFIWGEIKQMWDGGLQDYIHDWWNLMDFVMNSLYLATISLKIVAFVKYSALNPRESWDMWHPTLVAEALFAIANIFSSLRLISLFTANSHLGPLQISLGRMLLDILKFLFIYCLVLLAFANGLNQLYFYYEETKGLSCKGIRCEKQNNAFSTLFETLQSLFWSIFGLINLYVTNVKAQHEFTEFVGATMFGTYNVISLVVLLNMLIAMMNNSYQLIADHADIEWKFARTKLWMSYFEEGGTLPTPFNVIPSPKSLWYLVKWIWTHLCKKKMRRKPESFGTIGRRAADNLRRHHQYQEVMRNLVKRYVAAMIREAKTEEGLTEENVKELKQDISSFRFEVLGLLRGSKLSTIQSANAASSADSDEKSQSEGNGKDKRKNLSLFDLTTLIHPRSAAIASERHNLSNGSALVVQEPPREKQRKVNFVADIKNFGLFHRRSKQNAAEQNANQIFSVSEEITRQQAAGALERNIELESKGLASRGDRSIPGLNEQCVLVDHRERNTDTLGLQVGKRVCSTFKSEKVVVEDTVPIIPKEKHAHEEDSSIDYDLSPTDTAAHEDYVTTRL

[2] = target: Short transient receptor potential channel 6 (Mus musculus, UniProt Q61143); test: mouse TRPC6 channel blockers, concentration series – HEK293 cells, membrane potential dye, IC50, selectivity assay for selective TRPC4 inhibitor project, dose response (AID 492987); assay type: functional, cell-based
Sequence of Short transient receptor potential channel 6 (Q61143 whole entry): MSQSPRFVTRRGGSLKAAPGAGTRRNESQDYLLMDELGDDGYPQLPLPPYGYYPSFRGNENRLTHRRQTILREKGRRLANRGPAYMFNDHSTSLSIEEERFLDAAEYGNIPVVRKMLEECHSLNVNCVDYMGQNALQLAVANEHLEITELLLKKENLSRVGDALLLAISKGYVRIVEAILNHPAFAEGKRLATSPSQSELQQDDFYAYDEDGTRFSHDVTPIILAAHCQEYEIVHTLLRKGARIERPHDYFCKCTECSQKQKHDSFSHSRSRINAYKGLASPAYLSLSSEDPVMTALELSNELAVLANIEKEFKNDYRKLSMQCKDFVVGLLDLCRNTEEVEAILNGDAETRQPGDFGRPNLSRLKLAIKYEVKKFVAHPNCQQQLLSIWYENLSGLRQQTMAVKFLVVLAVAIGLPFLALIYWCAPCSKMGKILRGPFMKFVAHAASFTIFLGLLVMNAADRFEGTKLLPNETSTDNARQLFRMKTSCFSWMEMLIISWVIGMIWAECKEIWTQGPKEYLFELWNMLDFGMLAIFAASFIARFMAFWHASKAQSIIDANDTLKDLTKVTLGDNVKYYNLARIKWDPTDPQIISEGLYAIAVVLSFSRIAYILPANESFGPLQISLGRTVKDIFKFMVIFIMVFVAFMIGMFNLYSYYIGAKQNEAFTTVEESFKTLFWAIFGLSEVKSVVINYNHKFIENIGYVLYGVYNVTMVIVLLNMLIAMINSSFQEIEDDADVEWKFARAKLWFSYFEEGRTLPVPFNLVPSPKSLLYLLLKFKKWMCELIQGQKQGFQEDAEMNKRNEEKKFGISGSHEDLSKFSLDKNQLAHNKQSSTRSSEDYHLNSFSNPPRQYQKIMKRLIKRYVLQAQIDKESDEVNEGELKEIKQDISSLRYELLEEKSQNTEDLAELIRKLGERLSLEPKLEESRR

[3] = target: T1, Short transient receptor potential channel 4; test: potency of mouse TRPC4 calcium flux blockers – cell-based, HEK293 TRPC4/mu-opioid, DAMGO stimulus, Fluo-4, dose response (AID 492994); assay type: functional
ORF 73 = ORF 73 (Human herpesvirus 8, UniProt O40947); test: KSHV LANA DNA-binding disruption – biochemical, fluorescence polarization, cherry-picked samples, dose response (AID 504725); set-up: species or system Human gammaherpesvirus 8;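 note: fluorescence polarization of a labeled DNA duplex reporting LANA DNA binding; potency is for inhibitors that block LANA binding to the DNA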
Sequence of ORF 73 (O40947 whole entry): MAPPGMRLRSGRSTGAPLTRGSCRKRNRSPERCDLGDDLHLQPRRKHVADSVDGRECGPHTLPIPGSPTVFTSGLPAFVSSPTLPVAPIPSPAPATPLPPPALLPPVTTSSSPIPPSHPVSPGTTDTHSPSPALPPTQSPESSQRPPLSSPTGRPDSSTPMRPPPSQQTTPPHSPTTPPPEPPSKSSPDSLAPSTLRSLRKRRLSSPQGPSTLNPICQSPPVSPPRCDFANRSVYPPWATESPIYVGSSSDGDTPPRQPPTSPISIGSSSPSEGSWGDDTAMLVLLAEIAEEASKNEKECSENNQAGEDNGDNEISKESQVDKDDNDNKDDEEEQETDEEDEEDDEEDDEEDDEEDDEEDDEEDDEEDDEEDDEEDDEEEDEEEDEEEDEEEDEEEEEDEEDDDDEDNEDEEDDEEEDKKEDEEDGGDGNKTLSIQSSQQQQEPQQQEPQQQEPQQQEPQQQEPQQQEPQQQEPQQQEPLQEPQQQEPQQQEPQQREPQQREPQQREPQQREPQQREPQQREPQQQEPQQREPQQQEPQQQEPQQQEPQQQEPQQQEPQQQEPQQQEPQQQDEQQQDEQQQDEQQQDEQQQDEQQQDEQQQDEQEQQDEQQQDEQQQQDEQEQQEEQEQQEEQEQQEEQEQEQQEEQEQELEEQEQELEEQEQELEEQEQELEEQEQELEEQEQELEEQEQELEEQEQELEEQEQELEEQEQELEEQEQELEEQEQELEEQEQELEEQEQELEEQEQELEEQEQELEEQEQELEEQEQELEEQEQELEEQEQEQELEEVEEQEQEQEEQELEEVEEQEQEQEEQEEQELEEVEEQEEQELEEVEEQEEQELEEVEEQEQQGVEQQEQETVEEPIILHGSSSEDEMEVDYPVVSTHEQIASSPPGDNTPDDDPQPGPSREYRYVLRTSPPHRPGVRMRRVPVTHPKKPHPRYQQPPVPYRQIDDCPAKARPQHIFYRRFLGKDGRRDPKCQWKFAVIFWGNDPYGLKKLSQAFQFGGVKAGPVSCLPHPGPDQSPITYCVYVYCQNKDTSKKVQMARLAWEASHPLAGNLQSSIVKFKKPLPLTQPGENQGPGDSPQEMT

Troponin, cardiac muscle = Troponin, cardiac muscle (Homo sapiens, UniProt P19429+P45379+P63316); test: Fluorescence-based biochemical high throughput dose response assay for activators of the calcium sensitivity of cardiac Regulated Thin Filaments (RTF). [Related pubchem assays (depositor defined):AID493008, AID493018, AID504382, AID504383]; assay type: protein-complex assay
[4] = target: T2, Endoribonuclease toxin MazF (Escherichia coli K-12, UniProt P0AE70); test: activation of MazEF endoribonuclease cleavage – biochemical, fluorescence, single-stranded RNA substrate, uHTS hits, dose response (AID 588481); assay type: functional
T2 sequence (P0AE70 whole entry): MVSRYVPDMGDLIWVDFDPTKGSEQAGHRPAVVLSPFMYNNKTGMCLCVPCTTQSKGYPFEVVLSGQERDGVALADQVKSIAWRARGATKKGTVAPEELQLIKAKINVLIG

[5] = target: UDP-galactopyranose mutase (Mycobacterium tuberculosis, UniProt P9WIQ1); test: Inhibitors of Mycobacterium tuberculosis UDP-galactopyranose mutase (UGM) enzyme Measured in Biochemical System Using Plate Reader - 2105-02_Inhibitor_Dose_CherryPick_Activity. [Related pubchem assays (depositor defined):AID504439]
Sequence of UDP-galactopyranose mutase (P9WIQ1 whole entry): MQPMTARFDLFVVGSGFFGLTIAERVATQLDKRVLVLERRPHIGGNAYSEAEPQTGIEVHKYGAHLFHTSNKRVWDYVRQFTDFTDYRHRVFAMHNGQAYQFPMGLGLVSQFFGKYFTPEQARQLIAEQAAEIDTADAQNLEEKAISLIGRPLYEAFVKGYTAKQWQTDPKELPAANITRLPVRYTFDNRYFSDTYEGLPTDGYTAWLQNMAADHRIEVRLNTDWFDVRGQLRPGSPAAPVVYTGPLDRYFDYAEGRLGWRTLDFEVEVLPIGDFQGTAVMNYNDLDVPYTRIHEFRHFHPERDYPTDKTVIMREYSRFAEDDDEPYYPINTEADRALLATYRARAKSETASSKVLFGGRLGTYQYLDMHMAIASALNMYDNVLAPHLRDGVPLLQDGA

Keap1/Nrf2 = Keap1/Nrf2 (Homo sapiens, UniProt Q14145); test: disruptors of Keap1 binding to Nrf2 peptide – biochemical, fluorescence polarization, cherry-picked samples, dose response (AID 588683)
Sequence of Keap1/Nrf2 (Q16236 whole entry): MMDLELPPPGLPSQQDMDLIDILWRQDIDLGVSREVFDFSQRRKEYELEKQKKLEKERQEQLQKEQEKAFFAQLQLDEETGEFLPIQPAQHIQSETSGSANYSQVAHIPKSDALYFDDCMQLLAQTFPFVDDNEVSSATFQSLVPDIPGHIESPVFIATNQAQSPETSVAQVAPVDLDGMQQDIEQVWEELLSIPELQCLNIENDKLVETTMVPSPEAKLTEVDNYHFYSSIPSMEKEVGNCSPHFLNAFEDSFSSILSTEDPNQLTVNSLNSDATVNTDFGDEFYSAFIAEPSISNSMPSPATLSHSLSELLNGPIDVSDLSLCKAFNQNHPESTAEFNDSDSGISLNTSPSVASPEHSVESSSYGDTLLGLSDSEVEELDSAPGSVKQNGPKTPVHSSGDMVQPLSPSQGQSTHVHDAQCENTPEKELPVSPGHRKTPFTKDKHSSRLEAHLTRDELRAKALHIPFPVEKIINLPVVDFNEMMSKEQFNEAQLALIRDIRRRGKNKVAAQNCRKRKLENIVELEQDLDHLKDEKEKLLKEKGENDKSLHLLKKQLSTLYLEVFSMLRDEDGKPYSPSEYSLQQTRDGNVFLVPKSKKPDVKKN
Sequence of Keap1/Nrf2 (Q14145 whole entry): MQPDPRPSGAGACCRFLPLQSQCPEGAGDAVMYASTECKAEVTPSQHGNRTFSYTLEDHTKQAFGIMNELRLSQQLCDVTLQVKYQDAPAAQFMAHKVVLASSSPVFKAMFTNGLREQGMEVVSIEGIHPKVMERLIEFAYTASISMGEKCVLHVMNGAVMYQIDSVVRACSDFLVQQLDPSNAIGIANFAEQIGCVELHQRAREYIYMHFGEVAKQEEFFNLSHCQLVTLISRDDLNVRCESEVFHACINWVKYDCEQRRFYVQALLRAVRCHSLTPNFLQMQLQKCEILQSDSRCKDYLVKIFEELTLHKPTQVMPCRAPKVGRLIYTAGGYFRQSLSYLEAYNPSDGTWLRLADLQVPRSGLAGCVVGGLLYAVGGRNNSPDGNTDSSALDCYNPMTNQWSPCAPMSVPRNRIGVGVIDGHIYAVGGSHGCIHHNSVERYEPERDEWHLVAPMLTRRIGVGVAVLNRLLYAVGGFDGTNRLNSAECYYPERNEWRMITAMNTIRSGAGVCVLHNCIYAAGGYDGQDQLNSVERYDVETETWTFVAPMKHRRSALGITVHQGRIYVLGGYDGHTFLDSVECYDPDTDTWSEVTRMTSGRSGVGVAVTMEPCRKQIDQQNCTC

[6] = target: T2, Endoribonuclease toxin MazF; test: substrate-only fluorescence increase artefacts – biochemical, single-stranded RNase substrate, counter-screen for MazEF activator project, dose response (AID 588502); assay type: functional
[7] = Luminescence-based cell-based high throughput dose response assay to identify activators of the DAF-12 from the parasite S. stercoralis (ssDAF-12).; assay type: functional
[8] = target: T3, Oxysterols receptor LXR-beta (Homo sapiens, UniProt P55055); test: LXR agonists, Gal4 luciferase reporter, dose response, counter-screen for ssDAF-12 agonist project, cell-based, luminescence, HEK293, S. stercoralis campaign (AID 720737); assay type: functional; conditions: read-out: IC50 (the source's name)
T3 sequence (P55055 whole entry): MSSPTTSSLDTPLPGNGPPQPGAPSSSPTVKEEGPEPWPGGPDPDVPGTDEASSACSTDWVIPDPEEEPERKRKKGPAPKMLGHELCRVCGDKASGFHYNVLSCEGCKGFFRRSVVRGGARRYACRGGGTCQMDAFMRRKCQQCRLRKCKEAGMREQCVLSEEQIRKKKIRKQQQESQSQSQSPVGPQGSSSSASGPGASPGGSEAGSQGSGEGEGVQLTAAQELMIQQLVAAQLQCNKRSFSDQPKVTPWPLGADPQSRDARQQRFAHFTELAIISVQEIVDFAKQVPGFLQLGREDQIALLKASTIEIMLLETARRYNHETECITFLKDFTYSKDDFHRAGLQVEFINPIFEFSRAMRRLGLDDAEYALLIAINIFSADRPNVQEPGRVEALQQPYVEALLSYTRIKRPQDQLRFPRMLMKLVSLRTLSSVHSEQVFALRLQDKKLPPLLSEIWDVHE

Jurkat = test: SAR Analysis of small molecule inhibitors of […] specific antigen receptor-induced NF-kB activation in a Jurkat cell line using a luminescence assay - Set 3. [Related pubchem assays (depositor defined):AID435022, AID435025, AID465]; assay type: functional, cell-based; conditions: Homo sapiens
HEK293 [9] = test: SAR Analysis of small molecule inhibitors of B-cell specific antigen receptor-induced NF-kB activation in a HEK-293T cell line using a luminescence assay - Set 2. [Related pubchem assays (depositor defined):AID435022, AID435025, AID489021]; assay type: functional, cell-based; conditions: Homo sapiens
HEK293 [10] = test: HEK293T cell viability loss, resazurin readout – resazurin fluorescence, cytotoxicity control for NF-kB activator project, SAR follow-up (AID 493251); assay type: functional, cell-based; conditions: Homo sapiens
Phospholipase D1 = Phospholipase D1 (Homo sapiens, UniProt Q13393); test: cellular phospholipase D1 inhibition IC50 – cell-based, dose response (AID 602151); assay type: functional;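 note: cellular PLD1 assay in Calu-1 cells stimulated with PMA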
[11] = luciferase reporter signal suppression in cells – H4 neuroglioma cells, luminescence, dose response (AID 1990); assay type: functional, cell-based
BJ [12] = test: BJ-TERT fibroblast viability loss – cell-based, RAS-independent, luminescence, dose response (AID 1933); assay type: functional; conditions: Homo sapiens
[13] = Luminescence Cell-Based Dose Response HTS to Identify Inhibitors of 5'UTR Stem-Loop Driven Prion Protein mRNA Translation in H4 Neuroglioblastoma Cells. [Related pubchem assays: 1827 (Project Summary), 1813 (Primary HTS)]; assay type: functional
[14] = alpha-synuclein stem-loop luciferase translation blockers – H4 neuroglioma cells, luminescence, confirmation (AID 1988); assay type: functional, cell-based
BJ [15] = test: cells; assay type: functional, cell-based; conditions: Homo sapiens
BJ [16] = test: BJ-TERT-LT-ST fibroblast viability loss – cell-based, RAS-independent, luminescence, dose response (AID 1935); assay type: functional; conditions: Homo sapiens;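 note: BJ fibroblasts immortalized with TERT plus LT and ST oncogenes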
[17] = DRD fibroblast viability loss – cell-based, non-viral oncogenic, luminescence, dose response (AID 1934); assay type: functional; conditions: Homo sapiens
[18] = Luminescence Cell-Based Dose Retest to Confirm Inhibitors of Cancer Stem Cells. [Related pubchem assays (depositor defined):AID2717, AID2721]; assay type: functional; conditions: Homo sapiens
[19] = target: T4, Microphthalmia-associated transcription factor (Homo sapiens, UniProt O75030); test: reducers of TRPM1 reporter luminescence, concentration series – cell-based, SK-MEL-5, cherry-picked, set 3, MITF inhibitor project, dose response (AID 493073); assay type: functional;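 note: SK-MEL-5 melanoma cells with luciferase driven by the MITF target TRPM1 promoter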
T4 sequence (O75030 whole entry): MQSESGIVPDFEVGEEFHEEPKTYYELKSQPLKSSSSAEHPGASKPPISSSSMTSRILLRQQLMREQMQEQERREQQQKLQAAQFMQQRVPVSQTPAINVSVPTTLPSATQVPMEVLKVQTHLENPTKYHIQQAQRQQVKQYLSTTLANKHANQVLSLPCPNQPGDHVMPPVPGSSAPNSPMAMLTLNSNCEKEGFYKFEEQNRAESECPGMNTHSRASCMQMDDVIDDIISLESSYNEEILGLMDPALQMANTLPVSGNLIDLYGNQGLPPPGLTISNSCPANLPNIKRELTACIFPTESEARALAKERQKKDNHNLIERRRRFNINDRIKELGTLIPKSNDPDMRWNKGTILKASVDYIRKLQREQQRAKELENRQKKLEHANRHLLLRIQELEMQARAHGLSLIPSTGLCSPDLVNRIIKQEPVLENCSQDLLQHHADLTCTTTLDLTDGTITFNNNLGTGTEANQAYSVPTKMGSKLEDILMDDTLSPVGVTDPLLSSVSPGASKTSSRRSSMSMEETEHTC

A-375 = test: proliferation inhibition in MITF-low A375 cells – cell-based, cherry-pick samples, set 2, counter-screen for MITF modulator project, dose response (AID 540335); assay type: functional; conditions: Homo sapiens
Melanocortin receptor 4 = Melanocortin receptor 4 (Homo sapiens, UniProt P32245); test: inhibitors of MC4R cAMP signaling – cell-based, TR-FRET, biased antagonists, dose response (AID 602298); assay type: functional;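 note: antagonist potency against agonist-stimulated cAMP production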
Sequence of Melanocortin receptor 4 (P32245 whole entry): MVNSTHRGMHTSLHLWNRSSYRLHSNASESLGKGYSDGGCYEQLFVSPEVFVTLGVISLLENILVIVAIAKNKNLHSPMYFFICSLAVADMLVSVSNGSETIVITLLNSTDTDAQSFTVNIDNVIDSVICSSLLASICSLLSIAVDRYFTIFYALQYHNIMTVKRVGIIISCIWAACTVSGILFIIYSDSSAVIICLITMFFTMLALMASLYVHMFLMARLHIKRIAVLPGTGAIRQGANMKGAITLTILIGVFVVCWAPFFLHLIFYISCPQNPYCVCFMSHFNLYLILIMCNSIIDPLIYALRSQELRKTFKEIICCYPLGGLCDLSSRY

[20] = cAMP pathway inhibition in counterscreen cell line – TR-FRET cAMP detection, counter-screen for MC4R biased antagonist project, dose response (AID 602305); assay type: functional, cell-based;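 note: U2OS cells stimulated with forskolin near its EC80 as the cAMP inducer; potency is for inhibition of forskolin-stimulated cAMP signaling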
[21] = target: Dual specificity protein kinase CLK1 (Homo sapiens, UniProt P49759); test: inhibition of human CLK1 activity – biochemical, cherry-picked samples, selectivity assay for Dyrk1A inhibitor project, dose response (AID 588811)
Sequence of Dual specificity protein kinase CLK1 (P49759 whole entry): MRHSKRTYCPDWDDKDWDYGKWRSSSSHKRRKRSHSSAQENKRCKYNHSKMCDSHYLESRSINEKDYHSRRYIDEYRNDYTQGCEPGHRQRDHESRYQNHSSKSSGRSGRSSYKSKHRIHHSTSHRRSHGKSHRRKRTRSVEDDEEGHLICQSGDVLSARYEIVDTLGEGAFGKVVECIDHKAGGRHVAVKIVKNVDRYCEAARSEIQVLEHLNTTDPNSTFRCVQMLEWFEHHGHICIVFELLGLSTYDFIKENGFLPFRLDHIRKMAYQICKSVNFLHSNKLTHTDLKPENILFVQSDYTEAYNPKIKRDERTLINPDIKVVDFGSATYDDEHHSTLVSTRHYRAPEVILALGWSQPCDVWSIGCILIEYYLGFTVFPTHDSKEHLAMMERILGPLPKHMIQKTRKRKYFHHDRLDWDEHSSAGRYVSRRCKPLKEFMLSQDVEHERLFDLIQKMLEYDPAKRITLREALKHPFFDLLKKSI

Q: Which IC50 [1] does the source give for `Cc1ccc2nc(N3CCCC3)cc(C)c2c1` here?
A: 3.71 µM (active)

Q: What about the IC50 [2] of the same molecule?
A: 2.03 µM (active)

Q: What about the IC50 [3] of the same molecule?
A: 2.04 µM (active)

Q: What does the source list for `CN(N=Nc1ccc([N+](=O)[O-])cc1)c1ccccc1`?
A: AC50 (ORF 73): 11.4 µM (active); EC50 (Troponin, cardiac muscle): 5.61 µM (active); EC50 [4]: > 99 µM (inactive); AC50 [5]: 28.7 µM (active); AC50 (Keap1/Nrf2): 21.8 µM (active); EC50 [6]: 31 µM (inactive); IC50 [7]: > 67.6 µM (inactive); EC50 [8]: > 67.6 µM (inactive)

Q: For `CC(C)NC(=O)CCc1nc(-c2ccc(C(C)(C)C)cc2)no1`, which IC50 (Jurkat) is on record?
A: 29.2 µM (inactive)

Q: What about the IC50 (HEK293 [9]) of the same molecule?
A: 13.5 µM (active)

Q: What about the IC50 (HEK293 [10]) of the same molecule?
A: > 80 µM (inactive)

Q: Which IC50 (Phospholipase D1) does the source give for `O=C(NCCN1CC=C(n2c(=O)[nH]c3ccccc32)CC1)C1CC1c1ccccc1` (stereo not drawn) here?
A: 0.2 µM (active)

Q: With `O=C(/C=C/c1ccc(Cl)cc1)c1ccc([N+](=O)[O-])o1` as the molecule, how does the EC50 [11] read?
A: 8.88 µM (active)

Q: What about the EC50 (BJ [12]) of the same molecule?
A: > 150 µM (not active)

Q: What about the EC50 [13] of the same molecule?
A: > 60 µM (not active)

Q: What about the EC50 [14] of the same molecule?
A: > 120 µM (not active)

Q: And the EC50 (BJ [15])?
A: > 150 µM (inconclusive)

Q: What about the EC50 (BJ [16]) of the same molecule?
A: > 150 µM (inconclusive)

Q: What about the EC50 [17] of the same molecule?
A: 1.13 µM (inconclusive)

Q: What about the AC50 [18] of the same molecule?
A: 1.21 µM (active)

Q: What about the AC50 [19] of the same molecule?
A: 5.32 µM (active)

Q: What about the AC50 (A-375) of the same molecule?
A: 29.9 µM (active)

Q: And the IC50 (Melanocortin receptor 4)?
A: > 64.6 µM (inactive)

Q: And the IC50 [20]?
A: > 64.6 µM (inactive)

Q: For `Cc1nc(CN(C)c2ncnc3ccc(-c4ccc5c(c4)OCO5)cc23)cs1`, which AC50 [21] is on record?
A: < 0.00195 µM (active)
